Experimental data reported in patent publication US10681909B2, “Herbicidal triazoles” (FMC Corporation, priority 2014, dated 2020).

Experiments:
kochia = assay: Test C postemergence; format: in vivo, Kochia scoparia
In short: (§1)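 Seeds were planted in loam soil plus sand and sprayed preemergence. In parallel, potted plants in a peat-based medium were sprayed postemergence at 2 to 18 cm (1- to 4-leaf stage). Compounds were formulated in non-phytotoxic solvent with surfactant.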

barnyardgrass [1] = assay: Test C postemergence; format: in vivo, Echinochloa crus-galli
In short: as §1

barnyardgrass [2] = assay: Test B flooded paddy test; format: in vivo, Echinochloa crus-galli; details: 250 g ai/ha, applied to paddy water at 2-leaf stage, visual rating after 13 to 15 d, scale 0 (no effect) to 100 (complete control)
In short: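 Pots were flooded to 3 cm above the soil at treatment, and compounds were applied directly into the paddy water. That depth was held throughout. After 13 to 15 d in a greenhouse, plants were rated visually against untreated controls.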

foxtail, giant [3] = assay: Test A postemergence; format: in vivo, Setaria faberii; details: 0 to 100 scale (0 no effect, 100 complete control), approx. 10 d
In short: (§2)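 Loam/sand soil mix; compound in non-phytotoxic solvent + surfactant. Pre: directed soil spray right after planting seed. Post: potted plants 2–10 cm, 1–2 leaf stage, sprayed with same formulation.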

crabgrass, large = assay: Test C postemergence; format: in vivo, Digitaria sanguinalis
In short: as §1

lambsquarters = assay: Test C postemergence; format: in vivo, Chenopodium album
In short: as §1

oilseed rape = assay: Test C postemergence; format: in vivo, Brassica napus; details: Oilseed Rape
In short: as §1

pigweed [4] = assay: Test A postemergence; format: in vivo, Amaranthus retroflexus; details: 0 to 100 scale (0 no effect, 100 complete control), approx. 10 d
In short: as §2

velvetleaf = assay: Test C postemergence; format: in vivo, Abutilon theophrasti
In short: as §1

pigweed [5] = assay: Test C postemergence; format: in vivo, Amaranthus retroflexus
In short: as §1

blackgrass = assay: Test C postemergence; format: in vivo, Alopecurus myosuroides
In short: as §1

waterhemp = assay: Test C postemergence; format: in vivo, Amaranthus rudis
In short: as §1

foxtail, giant [6] = assay: Test C postemergence; format: in vivo, Setaria faberii
In short: as §1

galium = assay: Test C postemergence; format: in vivo, Galium aparine
In short: as §1

barnyardgrass [7] = assay: Test A preemergence; format: in vivo, Echinochloa crus-galli; details: 0 to 100 scale (0 no effect, 100 complete control)
In short: as §2

johnsongrass = assay: Test C postemergence; format: in vivo, Sorghum halepense
In short: as §1

ragweed = assay: Test C postemergence; format: in vivo, Ambrosia elatior
In short: as §1

wheat = assay: Test A postemergence; format: in vivo, Triticum aestivum; details: 0 to 100 scale (0 no effect, 100 complete control), approx. 10 d
In short: as §2

corn = assay: Test C postemergence; format: in vivo, Zea mays
In short: as §1

CCOc1nc(-c2ccc(Cl)cc2)nn1Cc1ccnc(C(F)(F)F)c1 [Compound 26]
10: Plant response rating (scale of 0 to 100 where 0 is no effect and 100 is complete control) (foxtail, giant [6]; 16 g ai/ha)
100: Plant response rating (scale of 0 to 100 where 0 is no effect and 100 is complete control) (lambsquarters; 16 g ai/ha) | Plant response rating (scale of 0 to 100 where 0 is no effect and 100 is complete control) (lambsquarters; 31 g ai/ha) | Plant response rating (scale of 0 to 100 where 0 is no effect and 100 is complete control) (lambsquarters; 62 g ai/ha) | Plant response rating (scale of 0 to 100 where 0 is no effect and 100 is complete control) (lambsquarters; 125 g ai/ha) | Plant response rating, Pigweed (pigweed [4]; 125 g ai/ha)
25: Plant response rating (scale of 0 to 100 where 0 is no effect and 100 is complete control) (barnyardgrass [1]; 16 g ai/ha) | Plant response rating (scale of 0 to 100 where 0 is no effect and 100 is complete control) (foxtail, giant [6]; 62 g ai/ha) | Plant response rating (scale of 0 to 100 where 0 is no effect and 100 is complete control) (johnsongrass; 16 g ai/ha) | Plant response rating (scale of 0 to 100 where 0 is no effect and 100 is complete control) (corn; 16 g ai/ha) | Plant response rating (scale of 0 to 100 where 0 is no effect and 100 is complete control) (corn; 31 g ai/ha)
45: Plant response rating (scale of 0 to 100 where 0 is no effect and 100 is complete control) (barnyardgrass [1]; 62 g ai/ha)
50: Plant response rating, Barnyardgrass, Flood (barnyardgrass [2]) | Plant response rating (scale of 0 to 100 where 0 is no effect and 100 is complete control) (crabgrass, large; 125 g ai/ha)
80: Plant response rating, Pigweed (pigweed [4]; 31 g ai/ha) | Plant response rating (scale of 0 to 100 where 0 is no effect and 100 is complete control) (galium; 16 g ai/ha)
30: Plant response rating (scale of 0 to 100 where 0 is no effect and 100 is complete control) (barnyardgrass [1]; 31 g ai/ha) | Plant response rating (scale of 0 to 100 where 0 is no effect and 100 is complete control) (corn; 62 g ai/ha)
98: Plant response rating (scale of 0 to 100 where 0 is no effect and 100 is complete control) (oilseed rape; 31 g ai/ha) | Plant response rating (scale of 0 to 100 where 0 is no effect and 100 is complete control) (pigweed [5]; 62 g ai/ha) | Plant response rating (scale of 0 to 100 where 0 is no effect and 100 is complete control) (pigweed [5]; 125 g ai/ha) | Plant response rating (scale of 0 to 100 where 0 is no effect and 100 is complete control) (waterhemp; 31 g ai/ha) | Plant response rating (scale of 0 to 100 where 0 is no effect and 100 is complete control) (waterhemp; 62 g ai/ha) | Plant response rating (scale of 0 to 100 where 0 is no effect and 100 is complete control) (waterhemp; 125 g ai/ha)
55: Plant response rating (scale of 0 to 100 where 0 is no effect and 100 is complete control) (barnyardgrass [1]; 125 g ai/ha) | Plant response rating (scale of 0 to 100 where 0 is no effect and 100 is complete control) (johnsongrass; 125 g ai/ha)
70: Plant response rating, Foxtail, Giant (foxtail, giant [3]; 31 g ai/ha) | Plant response rating (scale of 0 to 100 where 0 is no effect and 100 is complete control) (velvetleaf; 125 g ai/ha) | Plant response rating (scale of 0 to 100 where 0 is no effect and 100 is complete control) (ragweed; 62 g ai/ha)
35: Plant response rating (scale of 0 to 100 where 0 is no effect and 100 is complete control) (crabgrass, large; 62 g ai/ha) | Plant response rating (scale of 0 to 100 where 0 is no effect and 100 is complete control) (blackgrass; 31 g ai/ha) | Plant response rating (scale of 0 to 100 where 0 is no effect and 100 is complete control) (johnsongrass; 62 g ai/ha) | Plant response rating (scale of 0 to 100 where 0 is no effect and 100 is complete control) (corn; 125 g ai/ha)
40: Plant response rating (scale of 0 to 100 where 0 is no effect and 100 is complete control) (blackgrass; 62 g ai/ha) | Plant response rating (scale of 0 to 100 where 0 is no effect and 100 is complete control) (blackgrass; 125 g ai/ha) | Plant response rating (scale of 0 to 100 where 0 is no effect and 100 is complete control) (foxtail, giant [6]; 125 g ai/ha)
15: Plant response rating (scale of 0 to 100 where 0 is no effect and 100 is complete control) (blackgrass; 16 g ai/ha)
20: Plant response rating (scale of 0 to 100 where 0 is no effect and 100 is complete control) (crabgrass, large; 16 g ai/ha) | Plant response rating (scale of 0 to 100 where 0 is no effect and 100 is complete control) (crabgrass, large; 31 g ai/ha) | Plant response rating (scale of 0 to 100 where 0 is no effect and 100 is complete control) (foxtail, giant [6]; 31 g ai/ha) | Plant response rating (scale of 0 to 100 where 0 is no effect and 100 is complete control) (johnsongrass; 31 g ai/ha) | Plant response rating, Wheat (wheat; 31 g ai/ha) | Plant response rating, Wheat (wheat; 125 g ai/ha)
65: Plant response rating (scale of 0 to 100 where 0 is no effect and 100 is complete control) (velvetleaf; 62 g ai/ha)
90: Plant response rating (scale of 0 to 100 where 0 is no effect and 100 is complete control) (kochia; 31 g ai/ha) | Plant response rating (scale of 0 to 100 where 0 is no effect and 100 is complete control) (kochia; 62 g ai/ha) | Plant response rating (scale of 0 to 100 where 0 is no effect and 100 is complete control) (kochia; 125 g ai/ha) | Plant response rating, Foxtail, Giant (foxtail, giant [3]; 125 g ai/ha) | Plant response rating (scale of 0 to 100 where 0 is no effect and 100 is complete control) (oilseed rape; 16 g ai/ha) | Plant response rating (scale of 0 to 100 where 0 is no effect and 100 is complete control) (oilseed rape; 62 g ai/ha) | Plant response rating (scale of 0 to 100 where 0 is no effect and 100 is complete control) (galium; 31 g ai/ha) | Plant response rating (scale of 0 to 100 where 0 is no effect and 100 is complete control) (galium; 62 g ai/ha) | Plant response rating (scale of 0 to 100 where 0 is no effect and 100 is complete control) (galium; 125 g ai/ha) | Plant response rating, Barnyardgrass (barnyardgrass [7]; 125 g ai/ha) | Plant response rating (scale of 0 to 100 where 0 is no effect and 100 is complete control) (ragweed; 31 g ai/ha)
60: Plant response rating (scale of 0 to 100 where 0 is no effect and 100 is complete control) (velvetleaf; 16 g ai/ha) | Plant response rating (scale of 0 to 100 where 0 is no effect and 100 is complete control) (velvetleaf; 31 g ai/ha) | Plant response rating, Barnyardgrass (barnyardgrass [7]; 31 g ai/ha)
95: Plant response rating (scale of 0 to 100 where 0 is no effect and 100 is complete control) (oilseed rape; 125 g ai/ha) | Plant response rating (scale of 0 to 100 where 0 is no effect and 100 is complete control) (pigweed [5]; 16 g ai/ha) | Plant response rating (scale of 0 to 100 where 0 is no effect and 100 is complete control) (pigweed [5]; 31 g ai/ha) | Plant response rating (scale of 0 to 100 where 0 is no effect and 100 is complete control) (waterhemp; 16 g ai/ha)
85: Plant response rating (scale of 0 to 100 where 0 is no effect and 100 is complete control) (kochia; 16 g ai/ha) | Plant response rating (scale of 0 to 100 where 0 is no effect and 100 is complete control) (ragweed; 16 g ai/ha) | Plant response rating (scale of 0 to 100 where 0 is no effect and 100 is complete control) (ragweed; 125 g ai/ha)
